How the values were obtained:
[1] = tested on: Gaeumannomyces graminis var. tritici (Ggt); experiment: In vitro Assay: mycelial growth of Ggt on minimal media agar plates containing test compound; format: cell-based; settings: dark, 19-20° C., 4 to 5 days, diameter of mycelial growth; for inhibition at 0.1 ppm / inhibition at 1 ppm / inhibition at 10 ppm: Gaeumannomyces graminis; for inhibition at 0.1 ppm: read-out: In vitro (ppm) 0.1, Percent Inhibition; for inhibition at 1 ppm: read-out: In vitro (ppm) 1, Percent Inhibition; for inhibition at 10 ppm: read-out: In vitro (ppm) 10, Percent Inhibition
Procedure, shortened: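 Compounds added from acetone stock into minimal (Czapek Dox) agar; plates inoculated with three 4-mm Ggt plugs, incubated in dark at 19-20° C for 4 to 5 days. Colony diameter measured; Percent Inhibition = [1-((treated mm −4)/(control mm −4))]×100.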

Ggt = experiment: In vivo Assay: control of Ggt on wheat grown in pots of Ggt-infested soil, root disease rating; parameters: species or system Gaeumannomyces graminis var. tritici; settings: 0.5 mg active ingredient per pot, 'Bergen' or 'Anza' wheat in Ggt-infested soil, after four weeks, vs untreated control; for pest or weed control at 0.5 mg/pot: Gaeumannomyces graminis, 672 h, read-out: In vivo, percent disease control
Procedure: Compounds are tested for control of Ggt on ‘Bergen’ or ‘Anza’ varieties of wheat grown in 3-inch square pots containing soil infested with Ggt. The infestation is accomplished by mixing the soil with an inoculum prepared by growing Ggt on ¼ strength potato dextrose agar (4.875 g potato dextrose agar, 5.0 g Bacto agar, 500 mL distilled, deionized water) in plates and using plugs from the plates to infest sterile oats (400 cc whole oats, 350 mL deionized water, autoclaved). After a one-month incubation period at room temperature, the oats are dried and mixed with the soil at 4% v/v. Four wheat seeds are placed on top of the soil in each pot. The test compounds are prepared as an 1:9 acetone/water v/v solution containing 0.18% Tween® 20 to provide a treatment rate of 0.5 mg active ingredient per pot, treated with 3 mL test solution per pot. Five pots are used for each treatment level and the controls, which are untreated, inoculated and non-inoculated pots. After one hour drying time, the seeds are covered with more of the appropriate soil and a layer of vermiculite. The pots are placed in a growth chamber and watered each day. After four weeks, each pot is evaluated for evidence of disease by examination of the seminal roots of each plant under a dissecting microscope. A 0 to 5 rating scale having the following meanings is used:
0=no runner hyphae or lesions present
1=runner hyphae and a few small lesions present on <10% of root system
2=runner hyphae and small lesions present on 10-25% of root system
3=runner hyphae and lesions present on 25-50% of root system
4=runner hyphae and many, large, coalescing lesions on >50% of root system
5=root system and culm completely inundated with lesions and runner hyphae
From each set of five replicates a high and low score is eliminated and a replicate mean is calculated by the average of the remaining three scores. This mean score is then compared to the untreated control score and a percent disease control is calculated.

## CCNC(=O)c1cc(Cl)ccc1[Si](C)(C)C [Example 213, 5-Chloro-N-ethyl-2-(trimethylsilyl)benzamide]
[1]; 0.1 ppm in minimal media agar
  inhibition at 0.1 ppm: 9%
[1]; 1 ppm in minimal media agar
  inhibition at 1 ppm: 82%
[1]; 10 ppm in minimal media agar
  inhibition at 10 ppm: 79%
Ggt
  pest or weed control at 0.5 mg/pot: 87%

## CCN(C(=O)c1c(Cl)cccc1[Si](C)(C)C)C(C)C [Example 18, 2-Chloro-N-ethyl-N-(1-methylethyl)-6-(trimethylsilyl)benzamide]
[1]; 0.1 ppm in minimal media agar
  inhibition at 0.1 ppm: < 0%
[1]; 1 ppm in minimal media agar
  inhibition at 1 ppm: < 0%
[1]; 10 ppm in minimal media agar
  inhibition at 10 ppm: 100%
Ggt
  pest or weed control at 0.5 mg/pot: 97%

## CCNC(=O)c1c([Si](C)(C)C)ccc(CF)c1Cl [Example 228, 2-Chloro-N-ethyl-3-(fluoromethyl)-6-(trimethylsilyl)benzamide]
[1]; 0.1 ppm in minimal media agar
  inhibition at 0.1 ppm: < 0%
[1]; 1 ppm in minimal media agar
  inhibition at 1 ppm: 87%
[1]; 10 ppm in minimal media agar
  inhibition at 10 ppm: 96%
Ggt
  pest or weed control at 0.5 mg/pot: 84%

## C[Si](C)(C)c1cccc(Cl)c1C(=O)Nc1ccccc1[N+](=O)[O-] [Example 160, 2-Chloro-N-(2-nitrophenyl)-6-(trimethylsilyl)benzamide]
[1]; 0.1 ppm in minimal media agar
  inhibition at 0.1 ppm: 17%
[1]; 1 ppm in minimal media agar
  inhibition at 1 ppm: 63%
[1]; 10 ppm in minimal media agar
  inhibition at 10 ppm: 88%
Ggt
  pest or weed control at 0.5 mg/pot: 5%

## CCN(CC)C(=O)c1c(C)ccc(F)c1[Si](C)(C)C [Example 1, N,N-Diethyl-3-fluoro-6-methyl-2-(trimethylsilyl)benzamide]
[1]; 0.1 ppm in minimal media agar
  inhibition at 0.1 ppm: 6%
[1]; 1 ppm in minimal media agar
  inhibition at 1 ppm: 53%
[1]; 10 ppm in minimal media agar
  inhibition at 10 ppm: 74%
Ggt
  pest or weed control at 0.5 mg/pot: 91%

## CCNC(=O)c1c(Cl)cccc1[Si](C)(C)CC [Example 212, 2-Chloro-N-ethyl-6-(ethyldimethylsilyl)benzamide]
[1]; 0.1 ppm in minimal media agar
  inhibition at 0.1 ppm: 77%
[1]; 1 ppm in minimal media agar
  inhibition at 1 ppm: 54%
[1]; 10 ppm in minimal media agar
  inhibition at 10 ppm: 90%
Ggt
  pest or weed control at 0.5 mg/pot: 96%

## CCN(CC)C(=S)c1c(C)ccc(F)c1[Si](C)(C)C [Example 53, N,N-Diethyl-3-fluoro-6-methyl-2-(trimethylsilyl)thiobenzamide]
[1]; 0.1 ppm in minimal media agar
  inhibition at 0.1 ppm: 9%
[1]; 1 ppm in minimal media agar
  inhibition at 1 ppm: 19%
[1]; 10 ppm in minimal media agar
  inhibition at 10 ppm: 95%
Ggt
  pest or weed control at 0.5 mg/pot: 65%

## COc1ccccc1NC(=O)c1c(Cl)cccc1[Si](C)(C)C [Example 159, 2-Chloro-N-(2-methoxyphenyl)-6-(trimethylsilyl)benzamide]
[1]; 0.1 ppm in minimal media agar
  inhibition at 0.1 ppm: 12%
[1]; 1 ppm in minimal media agar
  inhibition at 1 ppm: 55%
[1]; 10 ppm in minimal media agar
  inhibition at 10 ppm: 100%
Ggt
  pest or weed control at 0.5 mg/pot: 0%

## CCNC(=O)c1ccccc1N(C)C(C)(C)C [Example 188, 2-[(1,1-Dimethylethyl)methylamino]-N-ethylbenzamide]
[1]; 0.1 ppm in minimal media agar
  inhibition at 0.1 ppm: 29%
[1]; 1 ppm in minimal media agar
  inhibition at 1 ppm: 71%
[1]; 10 ppm in minimal media agar
  inhibition at 10 ppm: 100%
Ggt
  pest or weed control at 0.5 mg/pot: 15%

## C[Si](C)(C)c1cccc(Cl)c1C(=O)NCc1ccco1 [Example 32, 2-Chloro-N-(2-furylmethyl)-6-(trimethylsilyl)benzamide]
[1]; 0.1 ppm in minimal media agar
  inhibition at 0.1 ppm: 75%
[1]; 1 ppm in minimal media agar
  inhibition at 1 ppm: 100%
[1]; 10 ppm in minimal media agar
  inhibition at 10 ppm: 100%
Ggt
  pest or weed control at 0.5 mg/pot: 85%

## CCNC(=O)c1c(Cl)ccc(Br)c1[Si](C)(C)C [Example 232, 3-Bromo-6-chloro-N-ethyl-2-(trimethylsilyl)benzamide]
[1]; 0.1 ppm in minimal media agar
  inhibition at 0.1 ppm: 92%
[1]; 1 ppm in minimal media agar
  inhibition at 1 ppm: 97%
[1]; 10 ppm in minimal media agar
  inhibition at 10 ppm: 95%
Ggt
  pest or weed control at 0.5 mg/pot: 78%

## Cc1ccccc1NC(=O)c1c(Cl)cccc1[Si](C)(C)C [Example 33, 2-Chloro-N-(2-methylphenyl)-6-(trimethylsilyl)benzamide]
[1]; 0.1 ppm in minimal media agar
  inhibition at 0.1 ppm: < 0%
[1]; 1 ppm in minimal media agar
  inhibition at 1 ppm: 44%
[1]; 10 ppm in minimal media agar
  inhibition at 10 ppm: 100%
Ggt
  pest or weed control at 0.5 mg/pot: 12%

## CCN(CC)C(=O)c1c(CF)ccc(F)c1[Si](C)(C)C [Example 55, N,N-Diethyl-3-fluoro-6-(fluoromethyl)-2-(trimethylsilyl)benzamide]
[1]; 0.1 ppm in minimal media agar
  inhibition at 0.1 ppm: 49%
[1]; 1 ppm in minimal media agar
  inhibition at 1 ppm: 81%
[1]; 10 ppm in minimal media agar
  inhibition at 10 ppm: 100%
Ggt
  pest or weed control at 0.5 mg/pot: 100%

## CCNC(=O)c1c([Si](C)(C)C)sc2c1CCCC2 [Example 270, N-Ethyl-2-(trimethylsilyl)-4,5,6,7-tetrahydrobenzo[B]thiophene-3-carboxamide]
[1]; 0.1 ppm in minimal media agar
  inhibition at 0.1 ppm: 96%
[1]; 1 ppm in minimal media agar
  inhibition at 1 ppm: 100%
[1]; 10 ppm in minimal media agar
  inhibition at 10 ppm: 100%
Ggt
  pest or weed control at 0.5 mg/pot: 87%

## CCC(C)NC(=O)c1c(Cl)cccc1[Si](C)(C)C (stereo not drawn) [Example 28, 2-Chloro-N-(1-methylpropyl)-6-(trimethylsilyl)benzamide]
[1]; 0.1 ppm in minimal media agar
  inhibition at 0.1 ppm: 60%
[1]; 1 ppm in minimal media agar
  inhibition at 1 ppm: 100%
[1]; 10 ppm in minimal media agar
  inhibition at 10 ppm: 100%
Ggt
  pest or weed control at 0.5 mg/pot: 86%

## CCN(CC)C(=O)c1c(Cl)cccc1[Si](C(C)C)(C(C)C)C(C)C [Example 68, N,N-Diethyl-2-chloro-6-[tris(1-methylethyl)silyl]benzamide]
[1]; 0.1 ppm in minimal media agar
  inhibition at 0.1 ppm: 8%
[1]; 1 ppm in minimal media agar
  inhibition at 1 ppm: < 0%
[1]; 10 ppm in minimal media agar
  inhibition at 10 ppm: 41%
Ggt
  pest or weed control at 0.5 mg/pot: < 0%

## C=C[Si](C)(C)c1cccc(Cl)c1C(=O)NCC [Example 87, N-Ethyl-2-chloro-6-(ethenyldimethylsilyl)benzamide]
[1]; 0.1 ppm in minimal media agar
  inhibition at 0.1 ppm: 93%
[1]; 1 ppm in minimal media agar
  inhibition at 1 ppm: 100%
[1]; 10 ppm in minimal media agar
  inhibition at 10 ppm: 100%
Ggt
  pest or weed control at 0.5 mg/pot: 96%

## CCN(CC)C(=O)c1c(Cl)ccc(C)c1[Si](C)(C)C [Example 71, N,N-Diethyl-6-chloro-3-methyl-2-(trimethylsilyl)benzamide]
[1]; 0.1 ppm in minimal media agar
  inhibition at 0.1 ppm: 14%
[1]; 1 ppm in minimal media agar
  inhibition at 1 ppm: 8%
[1]; 10 ppm in minimal media agar
  inhibition at 10 ppm: < 0%
Ggt
  pest or weed control at 0.5 mg/pot: 50%

## CCNC(=O)c1c(Cl)cccc1[Si](C)(C)C(C)C [Example 180, 2-Chloro-6-[dimethyl(1-methylethyl)silyl]-N-ethylbenzamide]
[1]; 0.1 ppm in minimal media agar
  inhibition at 0.1 ppm: 85%
[1]; 1 ppm in minimal media agar
  inhibition at 1 ppm: 82%
[1]; 10 ppm in minimal media agar
  inhibition at 10 ppm: 90%
Ggt
  pest or weed control at 0.5 mg/pot: 96%

## CCN(CC)C(=O)c1ccccc1[Si](C)(C)C [Example 2, N,N-Diethyl-2-(trimethylsilyl)benzamide]
[1]; 0.1 ppm in minimal media agar
  inhibition at 0.1 ppm: 14%
[1]; 1 ppm in minimal media agar
  inhibition at 1 ppm: 36%
[1]; 10 ppm in minimal media agar
  inhibition at 10 ppm: 72%
Ggt
  pest or weed control at 0.5 mg/pot: 74%

## CCNC(=O)c1cc(N)ccc1[Si](C)(C)C [Example 217, 5-Amino-N-ethyl-2-(trimethylsilyl)benzamide]
[1]; 0.1 ppm in minimal media agar
  inhibition at 0.1 ppm: 16%
[1]; 1 ppm in minimal media agar
  inhibition at 1 ppm: 68%
[1]; 10 ppm in minimal media agar
  inhibition at 10 ppm: 100%
Ggt
  pest or weed control at 0.5 mg/pot: 0%

## CC(C)NC(=O)c1c(Cl)cccc1[Si](C)(C)C [Example 21, 2-Chloro-N-(1-methylethyl)-6-(trimethylsilyl) benzarnide]
[1]; 0.1 ppm in minimal media agar
  In vitro (ppm) 0.1, Percent Inhibition: 100%
[1]; 1 ppm in minimal media agar
  In vitro (ppm) 1, Percent Inhibition: 100%
[1]; 10 ppm in minimal media agar
  In vitro (ppm) 10, Percent Inhibition: 100%
Ggt
  In vivo, percent disease control: 100%

## C[Si](C)(C)c1cccc(Cl)c1C(=O)N1CCOCC1 [Example 132, N-[2-Chloro-6-(trimethylsilyl)benzoyl]-morpholine]
[1]; 0.1 ppm in minimal media agar
  inhibition at 0.1 ppm: 54%
[1]; 1 ppm in minimal media agar
  inhibition at 1 ppm: 15%
[1]; 10 ppm in minimal media agar
  inhibition at 10 ppm: 46%
Ggt
  pest or weed control at 0.5 mg/pot: < 0%

## CCNC(=O)c1c(C(F)(F)F)cccc1[Si](C)(C)C [Example 82, N-Ethyl-2-(trifluoromethyl)-6-(trimethylsilyl)benzamide]
[1]; 0.1 ppm in minimal media agar
  inhibition at 0.1 ppm: 30%
[1]; 1 ppm in minimal media agar
  inhibition at 1 ppm: < 0%
[1]; 10 ppm in minimal media agar
  inhibition at 10 ppm: 57%
Ggt
  pest or weed control at 0.5 mg/pot: 58%

## CNC(=O)c1c(Cl)cccc1[Si](C)(C)C [Example 19, 2-Chloro-N-methyl-6-(trimethylsilyl)-benzamide]
[1]; 0.1 ppm in minimal media agar
  inhibition at 0.1 ppm: < 0%
[1]; 1 ppm in minimal media agar
  inhibition at 1 ppm: 7%
[1]; 10 ppm in minimal media agar
  inhibition at 10 ppm: 29%
Ggt
  pest or weed control at 0.5 mg/pot: 38%

## C[Si](C)(C)c1cccc(Cl)c1C(=O)NCCBr [Example 153, N-(2-Bromoethyl)-2-chloro-6-(trimethylsilyl)benzamide]
[1]; 0.1 ppm in minimal media agar
  inhibition at 0.1 ppm: < 0%
[1]; 1 ppm in minimal media agar
  inhibition at 1 ppm: 88%
[1]; 10 ppm in minimal media agar
  inhibition at 10 ppm: 91%
Ggt
  pest or weed control at 0.5 mg/pot: 29%

## CCNC(=O)c1c(Cl)cccc1OC(C)(C)C [Example 89, N-Ethyl-2-chloro-6-(1,1-dimethylethoxy)benzamide]
[1]; 0.1 ppm in minimal media agar
  inhibition at 0.1 ppm: 19%
[1]; 1 ppm in minimal media agar
  inhibition at 1 ppm: 85%
[1]; 10 ppm in minimal media agar
  inhibition at 10 ppm: 100%
Ggt
  pest or weed control at 0.5 mg/pot: 96%

Source: patent US6410558B1, “Fungicides for the control of take-all disease of plants” (Monsanto Technology LLC, priority 1991, dated 2002)
